Measurements as given in publication PMC5361737, “Potent and Selective KDM5 Inhibitor Stops Cellular Demethylation of H3K4me3 at Transcription Start Sites and Proliferation of MM1S Myeloma Cells” (Cell Chemical Biology, 2017).
“Also recorded” adds a separate entry of the source. Where two headings read alike, the source gives them in different places.

Tests used:
[1] = molecular target: Y1 (h) (Homo sapiens, UniProt P25929); assay: Cerep Express Panel, agonist radioligand; format: binding; details: read-out: % Inhibition of reference (10 µM)
[2] = Liver microsomes stability; format: in vitro ADME; details: human liver microsomes
[3] = molecular target: V1a (h) (Homo sapiens, UniProt P37288); assay: Cerep Express Panel, agonist radioligand; format: binding; details: read-out: % Inhibition of reference (10 µM)
[4] = molecular target: M1 (h) (Homo sapiens, UniProt P11229); assay: Cerep Express Panel, antagonist radioligand; format: binding; details: read-out: % Inhibition of reference (10 µM)
[5] = molecular target: T1, CCR1 (h) (Homo sapiens, UniProt P32246); assay: Cerep Express Panel, agonist radioligand; format: binding; details: read-out: % Inhibition of reference (10 µM)
T1 sequence (P32246 1-355): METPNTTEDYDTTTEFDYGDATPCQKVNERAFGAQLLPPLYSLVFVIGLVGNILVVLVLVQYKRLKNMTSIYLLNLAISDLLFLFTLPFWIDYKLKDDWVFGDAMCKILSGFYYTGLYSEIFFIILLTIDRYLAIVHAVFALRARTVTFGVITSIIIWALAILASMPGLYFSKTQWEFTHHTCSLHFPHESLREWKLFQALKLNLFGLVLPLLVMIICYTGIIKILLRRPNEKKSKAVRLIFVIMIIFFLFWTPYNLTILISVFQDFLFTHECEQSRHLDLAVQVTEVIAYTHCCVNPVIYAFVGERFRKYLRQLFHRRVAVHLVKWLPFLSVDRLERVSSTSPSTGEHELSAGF

[6] = test system: range of other multiple myeloma cell lines; assay: Cell viability, other multiple myeloma cell lines; format: cell-based; details: treated for 7 days
Source text: Figure S2 related to Figure 1 KDM5B Biochemical assay at different 2 -OG
Stem Cells (B) treated for 7 days. Data plotted represents the mean and standard deviation of four independent
2OG Concentration IC50 (mM) Ki […]

[7] = molecular target: MT1 (ML1A) (h) (Homo sapiens, UniProt P48039); assay: Cerep Express Panel, agonist radioligand; format: binding; details: read-out: % Inhibition of reference (10 µM)
[8] = molecular target: T2, dopamine transporter (h) (Homo sapiens, UniProt Q01959); assay: Cerep Express Panel, antagonist radioligand; format: binding; details: read-out: % Inhibition of reference (10 µM)
T2 construct: CEREP

[9] = molecular target: 5-HT2A (h) (Homo sapiens, UniProt P28223); assay: Cerep Express Panel, antagonist radioligand; format: binding; details: read-out: % Inhibition of reference (10 µM)
[10] = molecular target: CB1 (h) (Homo sapiens, UniProt P21554); assay: Cerep Express Panel, agonist radioligand; format: binding; details: read-out: % Inhibition of reference (10 µM)
[11] = molecular target: CCK1 (CCKA) (h) (Homo sapiens, UniProt P32238); assay: Cerep Express Panel, agonist radioligand; format: binding; details: read-out: % Inhibition of reference (10 µM)
[12] = molecular target: beta 2 (h) (Homo sapiens, UniProt P07550); assay: Cerep Express Panel, agonist radioligand; format: binding; details: read-out: % Inhibition of reference (10 µM)
[13] = test system: Na+ channel (site 2); assay: Cerep Express Panel, antagonist radioligand; format: binding; details: 10 µM
[14] = molecular target: 5-HT1B (Rattus norvegicus, UniProt P28564); assay: Cerep Express Panel, antagonist radioligand; format: binding; details: read-out: % Inhibition of reference (10 µM)
[15] = Liver microsomes stability; format: in vitro ADME; details: mouse liver microsomes
[16] = test system: alpha 1 (non-selective); assay: Cerep Express Panel, antagonist radioligand; format: binding
[17] = Liver microsomes stability; format: in vitro ADME; details: rat liver microsomes
[18] = test system: SKCa channel; assay: Cerep Express Panel, antagonist radioligand; format: binding
[19] = molecular target: Y2 (h) (Homo sapiens, UniProt P49146); assay: Cerep Express Panel, agonist radioligand; format: binding; details: read-out: % Inhibition of reference (10 µM)
[20] = molecular target: T3, KDM4C (Homo sapiens, UniProt Q9H3R0); assay: 2-Oxoglutarate oxygenase assay panel, AlphaScreen assay; format: biochemical; details: AlphaScreen assay; ± SEM
T3 sequence (Q9H3R0 1-1056): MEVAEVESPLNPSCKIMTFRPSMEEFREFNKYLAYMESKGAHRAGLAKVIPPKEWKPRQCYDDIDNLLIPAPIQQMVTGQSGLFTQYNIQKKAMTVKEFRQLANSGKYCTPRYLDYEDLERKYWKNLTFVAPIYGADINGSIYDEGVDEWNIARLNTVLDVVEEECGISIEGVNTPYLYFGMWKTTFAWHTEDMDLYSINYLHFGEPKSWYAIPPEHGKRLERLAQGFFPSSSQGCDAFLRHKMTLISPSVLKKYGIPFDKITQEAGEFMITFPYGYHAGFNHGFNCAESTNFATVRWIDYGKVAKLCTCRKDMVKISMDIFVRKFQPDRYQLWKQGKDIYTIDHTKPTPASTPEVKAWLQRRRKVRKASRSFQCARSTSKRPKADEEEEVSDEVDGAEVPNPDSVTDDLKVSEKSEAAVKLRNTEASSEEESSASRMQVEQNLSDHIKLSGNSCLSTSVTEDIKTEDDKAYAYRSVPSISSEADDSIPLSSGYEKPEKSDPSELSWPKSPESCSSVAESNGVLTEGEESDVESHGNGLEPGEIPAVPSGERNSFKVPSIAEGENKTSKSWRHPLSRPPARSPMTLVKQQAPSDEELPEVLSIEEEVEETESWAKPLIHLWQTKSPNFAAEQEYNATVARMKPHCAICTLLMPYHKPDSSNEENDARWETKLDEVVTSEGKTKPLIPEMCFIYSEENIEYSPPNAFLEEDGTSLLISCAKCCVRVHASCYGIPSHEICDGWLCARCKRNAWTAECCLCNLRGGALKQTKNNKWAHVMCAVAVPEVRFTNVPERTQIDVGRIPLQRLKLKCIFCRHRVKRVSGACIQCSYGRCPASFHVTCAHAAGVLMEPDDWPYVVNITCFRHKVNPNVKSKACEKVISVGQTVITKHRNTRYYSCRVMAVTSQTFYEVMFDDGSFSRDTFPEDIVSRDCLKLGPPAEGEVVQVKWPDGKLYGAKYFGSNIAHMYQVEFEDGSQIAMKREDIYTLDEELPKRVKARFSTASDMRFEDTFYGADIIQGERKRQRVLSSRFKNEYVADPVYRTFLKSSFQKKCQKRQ

[21] = molecular target: VPAC1 (VIP1) (h) (Homo sapiens, UniProt P32241); assay: Cerep Express Panel, agonist radioligand; format: binding; details: read-out: % Inhibition of reference (10 µM)
[22] = molecular target: 5-HT3 (h) (Homo sapiens, UniProt P46098); assay: Cerep Express Panel, antagonist radioligand; format: binding; details: read-out: % Inhibition of reference (10 µM)
[23] = molecular target: 5-HT5a (h) (Homo sapiens, UniProt P47898); assay: Cerep Express Panel, agonist radioligand; format: binding; details: read-out: % Inhibition of reference (10 µM)
Sequence of 5-HT5a (h) (P47898 whole entry): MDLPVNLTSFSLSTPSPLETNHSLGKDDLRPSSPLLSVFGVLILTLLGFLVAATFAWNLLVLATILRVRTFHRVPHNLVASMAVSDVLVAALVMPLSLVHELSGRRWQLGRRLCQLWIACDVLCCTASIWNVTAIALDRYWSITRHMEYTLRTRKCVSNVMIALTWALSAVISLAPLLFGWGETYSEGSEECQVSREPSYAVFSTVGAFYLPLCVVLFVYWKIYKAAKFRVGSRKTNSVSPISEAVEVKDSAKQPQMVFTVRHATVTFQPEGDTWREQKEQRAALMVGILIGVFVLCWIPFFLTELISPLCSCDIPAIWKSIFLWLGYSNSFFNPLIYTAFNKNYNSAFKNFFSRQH

Sequence of CB1 (h) (P21554 whole entry): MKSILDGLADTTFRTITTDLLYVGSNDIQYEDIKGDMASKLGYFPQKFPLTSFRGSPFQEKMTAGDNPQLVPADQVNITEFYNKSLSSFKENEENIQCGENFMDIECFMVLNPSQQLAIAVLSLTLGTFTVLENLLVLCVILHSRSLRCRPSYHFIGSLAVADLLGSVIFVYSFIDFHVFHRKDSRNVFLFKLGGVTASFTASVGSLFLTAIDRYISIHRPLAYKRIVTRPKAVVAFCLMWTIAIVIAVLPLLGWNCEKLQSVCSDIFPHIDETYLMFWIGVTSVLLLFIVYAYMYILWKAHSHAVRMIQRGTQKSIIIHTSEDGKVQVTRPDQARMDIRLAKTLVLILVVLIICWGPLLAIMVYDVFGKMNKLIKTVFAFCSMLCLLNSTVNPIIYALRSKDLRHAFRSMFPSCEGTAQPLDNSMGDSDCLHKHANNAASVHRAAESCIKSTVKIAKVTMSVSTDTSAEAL
Sequence of beta 2 (h) (P07550 whole entry): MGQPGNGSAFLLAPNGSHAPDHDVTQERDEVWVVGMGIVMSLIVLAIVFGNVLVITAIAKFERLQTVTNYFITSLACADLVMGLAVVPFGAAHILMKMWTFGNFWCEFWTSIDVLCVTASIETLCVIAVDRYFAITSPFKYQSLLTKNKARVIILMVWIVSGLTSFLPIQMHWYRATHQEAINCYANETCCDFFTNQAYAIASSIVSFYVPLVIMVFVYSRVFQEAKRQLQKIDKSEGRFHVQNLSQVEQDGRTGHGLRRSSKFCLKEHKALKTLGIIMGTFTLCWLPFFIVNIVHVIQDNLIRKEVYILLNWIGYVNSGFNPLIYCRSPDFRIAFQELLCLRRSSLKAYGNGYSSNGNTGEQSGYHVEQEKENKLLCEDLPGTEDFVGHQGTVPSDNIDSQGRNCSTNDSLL
Sequence of 5-HT3 (h) (P46098 24-478): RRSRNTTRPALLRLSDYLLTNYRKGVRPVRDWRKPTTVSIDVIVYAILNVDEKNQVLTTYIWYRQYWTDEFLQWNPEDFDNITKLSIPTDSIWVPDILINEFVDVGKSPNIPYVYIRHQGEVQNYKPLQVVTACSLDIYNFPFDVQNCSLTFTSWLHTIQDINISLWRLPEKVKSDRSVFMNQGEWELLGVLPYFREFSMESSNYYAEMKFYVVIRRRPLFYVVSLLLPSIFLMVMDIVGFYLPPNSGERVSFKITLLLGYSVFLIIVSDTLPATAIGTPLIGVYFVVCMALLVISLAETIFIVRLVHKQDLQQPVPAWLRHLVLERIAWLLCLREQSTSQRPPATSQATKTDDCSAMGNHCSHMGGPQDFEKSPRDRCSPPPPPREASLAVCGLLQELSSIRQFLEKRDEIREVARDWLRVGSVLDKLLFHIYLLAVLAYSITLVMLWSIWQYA
Sequence of V1a (h) (P37288 whole entry): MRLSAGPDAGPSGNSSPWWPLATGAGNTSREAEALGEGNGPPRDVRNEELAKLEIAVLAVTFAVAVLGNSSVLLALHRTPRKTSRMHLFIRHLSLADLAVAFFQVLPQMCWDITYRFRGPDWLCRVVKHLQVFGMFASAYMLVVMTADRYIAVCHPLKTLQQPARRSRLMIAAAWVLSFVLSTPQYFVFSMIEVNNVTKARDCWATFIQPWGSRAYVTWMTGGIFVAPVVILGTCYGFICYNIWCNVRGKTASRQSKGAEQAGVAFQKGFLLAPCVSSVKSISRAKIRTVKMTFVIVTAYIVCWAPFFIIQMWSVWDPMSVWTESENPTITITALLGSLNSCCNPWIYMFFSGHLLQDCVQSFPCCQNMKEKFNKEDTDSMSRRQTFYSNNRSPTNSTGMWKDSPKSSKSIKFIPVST
Sequence of CCK1 (CCKA) (h) (P32238 whole entry): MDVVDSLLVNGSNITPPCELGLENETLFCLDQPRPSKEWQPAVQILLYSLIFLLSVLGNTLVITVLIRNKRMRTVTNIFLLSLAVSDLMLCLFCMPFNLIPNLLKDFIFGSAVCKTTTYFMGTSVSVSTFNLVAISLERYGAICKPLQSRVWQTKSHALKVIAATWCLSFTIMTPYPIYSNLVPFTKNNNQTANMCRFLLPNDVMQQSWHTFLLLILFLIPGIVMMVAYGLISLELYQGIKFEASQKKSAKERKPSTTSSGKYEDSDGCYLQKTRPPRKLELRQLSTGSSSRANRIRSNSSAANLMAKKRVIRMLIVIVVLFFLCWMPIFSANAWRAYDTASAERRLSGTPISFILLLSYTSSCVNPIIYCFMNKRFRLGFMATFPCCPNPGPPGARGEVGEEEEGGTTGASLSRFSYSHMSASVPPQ
Sequence of 5-HT1B (P28564 whole entry): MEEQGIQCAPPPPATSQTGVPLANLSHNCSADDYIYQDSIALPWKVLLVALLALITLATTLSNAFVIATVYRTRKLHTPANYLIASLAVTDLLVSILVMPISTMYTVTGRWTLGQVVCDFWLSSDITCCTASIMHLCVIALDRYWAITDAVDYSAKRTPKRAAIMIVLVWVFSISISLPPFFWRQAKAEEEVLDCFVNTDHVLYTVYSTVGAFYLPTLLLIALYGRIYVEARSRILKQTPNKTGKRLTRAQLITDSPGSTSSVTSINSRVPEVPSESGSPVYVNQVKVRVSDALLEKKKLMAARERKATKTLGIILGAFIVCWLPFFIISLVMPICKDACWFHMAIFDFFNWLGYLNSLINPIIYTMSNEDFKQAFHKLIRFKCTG
Sequence of M1 (h) (P11229 whole entry): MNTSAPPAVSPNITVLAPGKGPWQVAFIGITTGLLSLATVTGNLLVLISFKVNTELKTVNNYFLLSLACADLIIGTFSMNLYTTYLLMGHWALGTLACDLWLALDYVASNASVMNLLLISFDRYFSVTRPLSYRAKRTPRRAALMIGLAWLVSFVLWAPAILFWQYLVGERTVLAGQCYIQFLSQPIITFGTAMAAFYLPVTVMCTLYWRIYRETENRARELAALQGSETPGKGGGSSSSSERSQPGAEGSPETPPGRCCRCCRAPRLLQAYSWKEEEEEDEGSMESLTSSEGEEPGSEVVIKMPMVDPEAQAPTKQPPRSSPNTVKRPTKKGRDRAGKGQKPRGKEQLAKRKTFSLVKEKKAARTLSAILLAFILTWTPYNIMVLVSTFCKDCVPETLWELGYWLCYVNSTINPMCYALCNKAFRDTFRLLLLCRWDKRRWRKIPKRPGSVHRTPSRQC
T2 sequence (Q01959 whole entry): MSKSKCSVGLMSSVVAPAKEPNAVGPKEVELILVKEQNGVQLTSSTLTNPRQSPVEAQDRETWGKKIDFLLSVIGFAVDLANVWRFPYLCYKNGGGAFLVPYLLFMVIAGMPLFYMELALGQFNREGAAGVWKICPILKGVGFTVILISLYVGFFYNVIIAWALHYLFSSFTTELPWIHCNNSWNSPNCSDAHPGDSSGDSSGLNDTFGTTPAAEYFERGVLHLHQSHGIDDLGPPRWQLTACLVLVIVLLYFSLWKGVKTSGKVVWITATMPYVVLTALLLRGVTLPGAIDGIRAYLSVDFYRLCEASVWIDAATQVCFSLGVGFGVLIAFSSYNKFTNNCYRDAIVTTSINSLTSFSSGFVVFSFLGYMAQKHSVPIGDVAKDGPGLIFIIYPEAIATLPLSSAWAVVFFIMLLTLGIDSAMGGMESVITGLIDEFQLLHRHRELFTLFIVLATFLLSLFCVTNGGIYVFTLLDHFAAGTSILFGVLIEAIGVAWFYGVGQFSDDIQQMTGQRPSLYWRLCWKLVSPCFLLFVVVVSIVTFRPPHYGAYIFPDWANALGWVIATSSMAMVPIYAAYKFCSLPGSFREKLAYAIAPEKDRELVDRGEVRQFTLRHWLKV
Sequence of Y1 (h) (P25929 whole entry): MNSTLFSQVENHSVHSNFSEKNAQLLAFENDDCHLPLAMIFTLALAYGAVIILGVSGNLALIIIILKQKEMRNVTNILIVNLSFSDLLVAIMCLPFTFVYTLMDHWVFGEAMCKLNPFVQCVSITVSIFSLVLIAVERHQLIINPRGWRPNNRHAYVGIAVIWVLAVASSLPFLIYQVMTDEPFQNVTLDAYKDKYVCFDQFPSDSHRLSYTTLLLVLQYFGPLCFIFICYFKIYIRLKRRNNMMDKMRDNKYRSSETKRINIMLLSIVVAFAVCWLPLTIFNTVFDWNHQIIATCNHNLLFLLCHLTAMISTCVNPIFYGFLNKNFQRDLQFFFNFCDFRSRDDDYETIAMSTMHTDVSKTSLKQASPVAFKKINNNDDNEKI
Sequence of MT1 (ML1A) (h) (P48039 whole entry): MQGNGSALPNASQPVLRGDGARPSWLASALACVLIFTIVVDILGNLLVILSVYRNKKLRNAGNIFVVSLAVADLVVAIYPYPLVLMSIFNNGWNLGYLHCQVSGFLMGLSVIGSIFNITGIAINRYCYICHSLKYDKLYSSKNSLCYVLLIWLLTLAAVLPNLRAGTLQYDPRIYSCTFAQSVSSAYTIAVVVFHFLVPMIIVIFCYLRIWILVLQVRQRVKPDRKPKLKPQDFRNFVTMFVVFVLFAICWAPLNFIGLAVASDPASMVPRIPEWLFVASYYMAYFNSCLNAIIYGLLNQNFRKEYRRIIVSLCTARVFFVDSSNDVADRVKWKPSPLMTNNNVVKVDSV

CCN(CCN(C)C)C(=O)CNCc1cc(C(N)=O)ccn1 [KDOAM-25]
inhibition at 10 µM [1]: -7%
intrinsic clearance, in words [2]: low intrinsic clearance
microsomal CLint ([2]; read-out: HLM Clint): 11.9 µL/min/mg
inhibition at 10 µM [3]: -4%
inhibition at 10 µM [4]: -18%
inhibition at 10 µM [5]: -8%
effect on viability of other multiple myeloma cells [6]: does not decrease cell viability; also recorded: did not show the same decrease in viability
inhibition at 10 µM [7]: 5%
inhibition at 10 µM [8]: 13%
inhibition at 10 µM [9]: -6%
inhibition at 10 µM [10]: -1%
inhibition at 10 µM [11]: -3%
inhibition at 10 µM [12]: 5%
% Inhibition of reference (10 µM) [13]: 7%
inhibition at 10 µM [14]: -1%
intrinsic clearance, in words [15]: low intrinsic clearance
microsomal CLint ([15]; read-out: MLM Clint): 8.42 µL/min/mg
% Inhibition of reference (10 µM) [16]: -15%
intrinsic clearance, in words [17]: low intrinsic clearance
microsomal CLint ([17]; read-out: RLM Clint): < 1 µL/min/mg
% Inhibition of reference (10 µM) [18]: 5%
inhibition at 10 µM [19]: -1%
pIC50 KDM4 C [20]: 5.3 ± 0.28
inhibition at 10 µM [21]: -12%
inhibition at 10 µM [22]: 8%
inhibition at 10 µM [23]: -24%
